Assay results published in ChEMBL document CHEMBL1201862, “PubChem BioAssay data set” (2004).
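Tested at 5 concentrations; 48 h exposure; 96-well plates; endpoints linearly interpolated, else capped at highest concentration. Here, GI50 denotes the concentration required for 50% inhibition of growth.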 Calls of active or inactive are those of the source. Cut-off read from the data, not from the text of the source: active = GI50 up to about 1.1 µM and inactive = higher.

How the values were obtained:
Assay in all cases: DTP human tumour cell line panel, 48 h
786-0 = test system: 786-0
A498 = test system: A498
A549 = test system: A549
ACHN = test system: ACHN
BT-549 = test system: BT-549
CAKI-1 = test system: CAKI-1
CCRF-CEM = test system: CCRF-CEM
COLO 205 = test system: COLO 205
DU-145 = test system: DU-145
EKVX = test system: EKVX
HCT-116 = test system: HCT-116
HCT-15 = test system: HCT-15
HL-60 = test system: HL-60
HOP-62 = test system: HOP-62
HOP-92 = test system: HOP-92
HT-29 = test system: HT-29
Hs-578T = test system: Hs-578T
IGROV-1 = test system: IGROV-1
K562 = test system: K562
KM12 = test system: KM12
LOX IMVI = test system: LOX IMVI
M14 = test system: M14
MCF7 = test system: MCF7
MDA-MB-231 = test system: MDA-MB-231
MDA-MB-435 = test system: MDA-MB-435
MDA-N = test system: MDA-N
MOLT-4 = test system: MOLT-4
Malme-3M = test system: Malme-3M
NCI-H226 = test system: NCI-H226
NCI-H460 = test system: NCI-H460
NCI-H522 = test system: NCI-H522
NCI/ADR-RES = test system: NCI/ADR-RES
OVCAR-3 = test system: OVCAR-3
OVCAR-4 = test system: OVCAR-4
OVCAR-5 = test system: OVCAR-5
OVCAR-8 = test system: OVCAR-8
PC-3 = test system: PC-3
RPMI-8226 = test system: RPMI-8226
RXF 393 = test system: RXF 393
SF-268 = test system: SF-268
SF-295 = test system: SF-295
SF-539 = test system: SF-539
SK-MEL-28 = test system: SK-MEL-28
SK-MEL-2 = test system: SK-MEL-2
SK-MEL-5 = test system: SK-MEL-5
SK-OV-3 = test system: SK-OV-3
SN12C = test system: SN12C
SNB-19 = test system: SNB-19
SNB-75 = test system: SNB-75
SR = test system: SR
SW-620 = test system: SW-620
T47D = test system: T47D
TK-10 = test system: TK-10
U-251 = test system: U-251
UACC-257 = test system: UACC-257
UO-31 = test system: UO-31
HCC 2998 = test system: HCC 2998
NCI-H23 = test system: NCI-H23
UACC-62 = test system: UACC-62

## O=C1NC(=O)C(c2c[nH]c3ccccc23)=C1c1cnc[nH]1
786-0
  GI50: > 100 µM (inactive)
A498
  GI50: > 100 µM (inactive)
A549
  GI50: > 100 µM (inactive)
ACHN
  GI50: > 100 µM (inactive)
BT-549
  GI50: 46.3 µM (inactive)
CAKI-1
  GI50: > 100 µM (inactive)
CCRF-CEM
  GI50: 47.3 µM (inactive)
COLO 205
  GI50: 49.5 µM (inactive)
DU-145
  GI50: > 100 µM (inactive)
EKVX
  GI50: > 100 µM (inactive)
HCT-116
  GI50: 41.8 µM (inactive)
HCT-15
  GI50: > 100 µM
HL-60
  GI50: 26.9 µM (inactive)
HOP-62
  GI50: > 100 µM (inactive)
HOP-92
  GI50: > 100 µM (inactive)
HT-29
  GI50: 66.4 µM (inactive)
Hs-578T
  GI50: 64.3 µM (inactive)
IGROV-1
  GI50: > 100 µM (inactive)
K562
  GI50: 5.61 µM (inactive)
KM12
  GI50: 45.2 µM (inactive)
LOX IMVI
  GI50: 59 µM (inactive)
M14
  GI50: > 100 µM (inactive)
MCF7
  GI50: 34.5 µM (inactive)
MDA-MB-231
  GI50: > 100 µM (inactive)
MDA-MB-435
  GI50: 75.3 µM (inactive)
MDA-N
  GI50: 74.3 µM (inactive)
MOLT-4
  GI50: 8.47 µM (inactive)
Malme-3M
  GI50: > 100 µM (inactive)
NCI-H226
  GI50: 1.79 µM (inactive)
NCI-H460
  GI50: 55.3 µM (inactive)
NCI-H522
  GI50: 56.8 µM (inactive)
NCI/ADR-RES
  GI50: > 100 µM (inactive)
OVCAR-3
  GI50: 82 µM (inactive)
OVCAR-4
  GI50: > 100 µM (inactive)
OVCAR-5
  GI50: > 100 µM (inactive)
OVCAR-8
  GI50: > 100 µM (inactive)
PC-3
  GI50: > 100 µM (inactive)
RPMI-8226
  GI50: 49 µM (inactive)
RXF 393
  GI50: > 100 µM (inactive)
SF-268
  GI50: > 100 µM (inactive)
SF-295
  GI50: > 100 µM (inactive)
SF-539
  GI50: 32.9 µM (inactive)
SK-MEL-28
  GI50: > 100 µM (inactive)
SK-MEL-2
  GI50: 43.4 µM (inactive)
SK-MEL-5
  GI50: 22.5 µM (inactive)
SK-OV-3
  GI50: > 100 µM (inactive)
SN12C
  GI50: > 100 µM (inactive)
SNB-19
  GI50: > 100 µM (inactive)
SNB-75
  GI50: > 100 µM (inactive)
SR
  GI50: 23.6 µM (inactive)
SW-620
  GI50: 57.3 µM (inactive)
T47D
  GI50: > 100 µM (inactive)
TK-10
  GI50: 89.5 µM (inactive)
U-251
  GI50: > 100 µM (inactive)
UACC-257
  GI50: > 100 µM (inactive)
UO-31
  GI50: 70.6 µM (inactive)

## CNC(=O)CNC(=O)N(C[C@@H]1CCCN1C(=O)[C@H](CC(C)C)NC(=O)OC(C)(C)C)C(C)C
786-0
  GI50: > 100 µM (inactive)
A498
  GI50: > 100 µM (inactive)
A549
  GI50: > 100 µM (inactive)
ACHN
  GI50: > 100 µM (inactive)
BT-549
  GI50: > 100 µM (inactive)
CAKI-1
  GI50: > 100 µM (inactive)
CCRF-CEM
  GI50: > 100 µM (inactive)
COLO 205
  GI50: > 100 µM (inactive)
DU-145
  GI50: > 100 µM (inactive)
EKVX
  GI50: > 100 µM (inactive)
HCC 2998
  GI50: > 100 µM (inactive)
HCT-116
  GI50: > 100 µM (inactive)
HCT-15
  GI50: > 100 µM
HL-60
  GI50: > 100 µM (inactive)
HOP-62
  GI50: > 100 µM (inactive)
HT-29
  GI50: > 100 µM (inactive)
Hs-578T
  GI50: > 100 µM (inactive)
IGROV-1
  GI50: > 100 µM (inactive)
K562
  GI50: > 100 µM (inactive)
KM12
  GI50: > 100 µM (inactive)
LOX IMVI
  GI50: > 100 µM (inactive)
M14
  GI50: > 100 µM (inactive)
MCF7
  GI50: > 100 µM (inactive)
MDA-MB-231
  GI50: > 100 µM (inactive)
MDA-MB-435
  GI50: > 100 µM (inactive)
MDA-N
  GI50: > 100 µM (inactive)
MOLT-4
  GI50: > 100 µM (inactive)
Malme-3M
  GI50: > 100 µM (inactive)
NCI-H226
  GI50: > 100 µM (inactive)
NCI-H23
  GI50: > 100 µM (inactive)
NCI-H460
  GI50: > 100 µM (inactive)
NCI-H522
  GI50: > 100 µM (inactive)
NCI/ADR-RES
  GI50: > 100 µM (inactive)
OVCAR-3
  GI50: > 100 µM (inactive)
OVCAR-4
  GI50: > 100 µM (inactive)
OVCAR-5
  GI50: > 100 µM (inactive)
OVCAR-8
  GI50: > 100 µM (inactive)
PC-3
  GI50: > 100 µM (inactive)
RPMI-8226
  GI50: > 100 µM (inactive)
RXF 393
  GI50: > 100 µM (inactive)
SF-268
  GI50: > 100 µM (inactive)
SF-295
  GI50: > 100 µM (inactive)
SK-MEL-28
  GI50: > 100 µM (inactive)
SK-MEL-2
  GI50: > 100 µM (inactive)
SK-MEL-5
  GI50: > 100 µM (inactive)
SK-OV-3
  GI50: > 100 µM (inactive)
SN12C
  GI50: > 100 µM (inactive)
SNB-19
  GI50: > 100 µM (inactive)
SNB-75
  GI50: > 100 µM (inactive)
SR
  GI50: > 100 µM (inactive)
SW-620
  GI50: > 100 µM (inactive)
T47D
  GI50: > 100 µM (inactive)
U-251
  GI50: > 100 µM (inactive)
UACC-62
  GI50: > 100 µM (inactive)
UO-31
  GI50: > 100 µM (inactive)
